Assay results as given in the NIST ThermoML archive (doi:10.1021/je034041x).

Tests used:
[1] = xn = mol fraction of the nth substance listed; details: Liquid
[2] = Liquid

O=C=O [carbon dioxide] + O
[1]
Details | viscosity [mPa·s]
273.9 K, 670 kPa, x1 = 0.00869 | 1.855
274.2 K, 4630 kPa, x1 = 0.00295 | 2.827
274.3 K, 670 kPa, x1 = 0.00857 | 1.851
274.5 K, 670 kPa, x1 = 0.0085 | 1.839
274.6 K, 4610 kPa, x1 = 0.00294 | 2.951
274.7 K, 670 kPa, x1 = 0.00844 | 1.818
275 K, 670 kPa, x1 = 0.00834 | 1.794
275.1 K, 670 kPa, x1 = 0.00831 | 1.807
275.3 K, 670 kPa, x1 = 0.00824 | 1.771
275.6 K, 690 kPa, x1 = 0.00815 | 1.739
275.9 K, 690 kPa, x1 = 0.00805 | 1.705
276 K, 690 kPa, x1 = 0.00802 | 1.694
276.1 K, 4780 kPa, x1 = 0.00291 | 2.225
276.3 K, 4790 kPa, x1 = 0.00291 | 2.179
276.4 K, 690 kPa, x1 = 0.00789 | 1.647
276.5 K, 4810 kPa, x1 = 0.0029 | 2.171
276.7 K, 690 kPa, x1 = 0.00779 | 1.605
277.1 K, 690 kPa, x1 = 0.00766 | 1.604
277.5 K, 690 kPa, x1 = 0.00754 | 1.57
277.7 K, 4850 kPa, x1 = 0.00287 | 2.078
278.6 K, 4890 kPa, x1 = 0.00285 | 1.948
279.1 K, 710 kPa, x1 = 0.00702 | 1.438
279.3 K, 710 kPa, x1 = 0.00695 | 1.44
279.6 K, 4910 kPa, x1 = 0.00283 | 1.848
281 K, 710 kPa, x1 = 0.00641 | 1.367
281 K, 4910 kPa, x1 = 0.0028 | 1.728
281.8 K, 769 kPa, x1 = 0.00615 | 1.225
282.1 K, 729 kPa, x1 = 0.00605 | 1.267
282.1 K, 4920 kPa, x1 = 0.00277 | 1.539
282.2 K, 4870 kPa, x1 = 0.00277 | 1.576

O [water]
[2]
Details | viscosity [mPa·s]
273.9 K, 670 kPa | 1.833
274.2 K, 4630 kPa | 1.802
274.3 K, 670 kPa | 1.827
274.5 K, 670 kPa | 1.808
274.6 K, 4610 kPa | 1.804
274.7 K, 670 kPa | 1.774
275 K, 670 kPa | 1.737
275.1 K, 670 kPa | 1.725
275.3 K, 670 kPa | 1.705
275.6 K, 690 kPa | 1.683
275.9 K, 101.3 kPa | 1.64
275.9 K, 690 kPa | 1.66
276 K, 690 kPa | 1.652
276.1 K, 101.3 kPa | 1.637
276.1 K, 4780 kPa | 1.67
276.3 K, 101.3 kPa | 1.631
276.3 K, 4790 kPa | 1.652
276.4 K, 690 kPa | 1.622
276.5 K, 4810 kPa | 1.634
276.7 K, 101.3 kPa | 1.594
276.7 K, 690 kPa | 1.613
276.9 K, 101.3 kPa | 1.588
277.1 K, 690 kPa | 1.589
277.2 K, 101.3 kPa | 1.555
277.5 K, 690 kPa | 1.558
277.7 K, 4850 kPa | 1.459
278.3 K, 101.3 kPa | 1.491
278.6 K, 4890 kPa | 1.459
279.1 K, 710 kPa | 1.442
279.3 K, 101.3 kPa | 1.437
279.3 K, 710 kPa | 1.428
279.6 K, 4910 kPa | 1.425
279.9 K, 101.3 kPa | 1.405
281 K, 710 kPa | 1.357
281 K, 4910 kPa | 1.375
281.8 K, 769 kPa | 1.329
282.1 K, 729 kPa | 1.319
282.1 K, 4920 kPa | 1.338
282.2 K, 101.3 kPa | 1.286
282.2 K, 4870 kPa | 1.335
